± gives the standard deviation of the averaged measurements.
Assays:
ERLOTINIB [1] = compound: T1, C#Cc1cccc(Nc2ncnc3cc(OCCOC)c(OCCOC)cc23)c1 [ERLOTINIB]; experiment: surviving fraction relative to DMSO-only wells; higher = less growth inhibition; details: exposure time: 5 days
Outline: (§1)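 A line counted only if its three screens reached replicate Pearson r >0.7 and median Z' >0.3. Tumour cells in log phase were seeded at 250–500 per well in 384-well plates and, after 24 hours, kept in continuous contact with inhibitors at 0.5, 1, 5, 10, 50, 100, 500 and 1000 nM for five days. Surviving fraction was taken from CellTiter-Glo luminescence relative to the median of DMSO-only wells.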

METHOTREXATE [2] = compound: T2, CN(Cc1cnc2nc(N)nc(N)c2n1)c1ccc(C(=O)N[C@@H](CCC(=O)O)C(=O)O)cc1 [METHOTREXATE]; experiment: as above; details: exposure time: 5 days
Outline: as §1

EVEROLIMUS [3] = compound: T3, CO[C@H]1C[C@@H]2CC[C@@H](C)[C@@](O)(O2)C(=O)C(=O)N2CCCC[C@H]2C(=O)O[C@H]([C@H](C)C[C@@H]2CC[C@@H](OCCO)[C@H](OC)C2)CC(=O)[C@H](C)/C=C(\C)[C@@H](O)[C@@H](OC)C(=O)[C@H](C)C[C@H](C)/C=C/C=C/C=C/1C [EVEROLIMUS]; experiment: as above; details: exposure time: 5 days
Outline: as §1

MK2206 [4] = compound: T4, NC1(c2ccc(-c3nc4ccn5c(=O)[nH]nc5c4cc3-c3ccccc3)cc2)CCC1 [MK2206]; experiment: as above; details: exposure time: 5 days
Outline: as §1

ERLOTINIB [5] = compound: T1, ERLOTINIB; experiment: area under dose-response curve of surviving fraction (unscaled, Aref=0) (surviving fraction x log10(nM)); higher = more resistant; details: exposure time: 5 days; dose range 0.5-1000 nM
Outline: (§2)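 Tumour cell lines in 384-well plates were exposed for five days to eight inhibitor concentrations from 0.5 to 1000 nM. Viability was read by CellTiter-Glo luminescence, normalised to DMSO-only wells, in three screens per line. Dose-response survival curves were fitted to surviving fractions by 3-parameter logistic regression in the drc R package. Area under the curve is the unscaled activity area (Aref = 0) over log10 dose.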

METHOTREXATE [6] = compound: T2, METHOTREXATE; experiment: as above; details: exposure time: 5 days; dose range 0.5-1000 nM
Outline: as §2

EVEROLIMUS [7] = compound: T3, EVEROLIMUS; experiment: as above; details: exposure time: 5 days; dose range 0.5-1000 nM
Outline: as §2

MK2206 [8] = compound: T4, MK2206; experiment: as above; details: exposure time: 5 days; dose range 0.5-1000 nM
Outline: as §2

GEMCITABINE = compound: Nc1ccn([C@@H]2O[C@H](CO)[C@@H](O)C2(F)F)c(=O)n1 [GEMCITABINE]; experiment: as above; details: exposure time: 5 days; dose range 0.5-1000 nM
Outline: as §2

VINORELBINE = compound: CCC1=C[C@@H]2CN(C1)Cc1c([nH]c3ccccc13)[C@@](C(=O)OC)(c1cc3c(cc1OC)N(C)[C@H]1[C@@](O)(C(=O)OC)[C@H](OC(C)=O)[C@]4(CC)C=CCN5CC[C@]31[C@@H]54)C2 [VINORELBINE]; experiment: as above; details: exposure time: 5 days; dose range 0.5-1000 nM
Outline: as §2

PLX-4720 = compound: CCCS(=O)(=O)Nc1ccc(F)c(C(=O)c2c[nH]c3ncc(Cl)cc23)c1F [PLX-4720]; experiment: as above; details: exposure time: 5 days; dose range 0.5-1000 nM
Outline: as §2

SUNITINIB = compound: CCN(CC)CCNC(=O)c1c(C)[nH]c(/C=C2\C(=O)Nc3ccc(F)cc32)c1C [SUNITINIB]; experiment: as above; details: exposure time: 5 days; dose range 0.5-1000 nM
Outline: as §2

AZD4547 = compound: COc1cc(CCc2cc(NC(=O)c3ccc(N4CC(C)NC(C)C4)cc3)n[nH]2)cc(OC)c1 [AZD4547]; experiment: as above; details: exposure time: 5 days; dose range 0.5-1000 nM
Outline: as §2

ETOPOSIDE = compound: COc1cc([C@@H]2c3cc4c(cc3[C@@H](O[C@@H]3O[C@@H]5CO[C@@H](C)O[C@H]5[C@H](O)[C@H]3O)[C@H]3COC(=O)[C@H]23)OCO4)cc(OC)c1O [ETOPOSIDE]; experiment: as above; details: exposure time: 5 days; dose range 0.5-1000 nM
Outline: as §2

[9] = compound: Cc1nc(Nc2n[nH]c3c2CN(C(=O)N[C@H](CN(C)C)c2ccccc2)C3(C)C)c2sccc2n1; experiment: as above; details: exposure time: 5 days; dose range 0.5-1000 nM
Outline: as §2

[10] = compound: O=C(NOCC1CC1)c1ccc(F)c(F)c1Nc1ccc(I)cc1Cl; experiment: as above; details: exposure time: 5 days; dose range 0.5-1000 nM
Outline: as §2

CCK81 LARGE INTESTINE showed a surviving fraction (ERLOTINIB [1]; 0.5 nM) of 0.779 ± 0.2, a surviving fraction (ERLOTINIB [1]; 5 nM) of 0.794 ± 0.077 and a surviving fraction (ERLOTINIB [1]; 10 nM) of 0.774 ± 0.13. It also gave a surviving fraction (ERLOTINIB [1]; 50 nM) of 0.774 ± 0.11, a surviving fraction (ERLOTINIB [1]; 100 nM) of 0.749 ± 0.065 and a surviving fraction (ERLOTINIB [1]; 500 nM) of 0.19 ± 0.012. It also gave a surviving fraction (ERLOTINIB [1]; 1000 nM) of 0.78 ± 0.031, a surviving fraction (METHOTREXATE [2]; 0.5 nM) of 0.75 ± 0.13 and a surviving fraction (METHOTREXATE [2]; 1 nM) of 0.843 ± 0.061. It also gave a surviving fraction (METHOTREXATE [2]; 5 nM) of 0.716 ± 0.15, a surviving fraction (METHOTREXATE [2]; 10 nM) of 0.697 ± 0.029 and a surviving fraction (METHOTREXATE [2]; 50 nM) of 0.701 ± 0.054. It also gave a surviving fraction (METHOTREXATE [2]; 100 nM) of 0.663 ± 0.083, a surviving fraction (METHOTREXATE [2]; 500 nM) of 0.697 ± 0.077 and a surviving fraction (METHOTREXATE [2]; 1000 nM) of 0.714 ± 0.095. For the same test system, the surviving fraction (EVEROLIMUS [3]; 0.5 nM) was 0.812 ± 0.075, the surviving fraction (EVEROLIMUS [3]; 1 nM) was 0.754 ± 0.031 and the surviving fraction (EVEROLIMUS [3]; 5 nM) was 0.701 ± 0.11. It also gave a surviving fraction (EVEROLIMUS [3]; 10 nM) of 0.711 ± 0.14, a surviving fraction (EVEROLIMUS [3]; 50 nM) of 0.715 ± 0.041 and a surviving fraction (EVEROLIMUS [3]; 100 nM) of 0.756 ± 0.048. The surviving fraction (EVEROLIMUS [3]; 500 nM) was 0.551 ± 0.1, the surviving fraction (EVEROLIMUS [3]; 1000 nM) was 0.5123 ± 0.004 and the surviving fraction (MK2206 [4]; 0.5 nM) was 0.868 ± 0.21. The surviving fraction (MK2206 [4]; 1 nM) was 0.793 ± 0.089, the surviving fraction (MK2206 [4]; 5 nM) was 0.751 ± 0.14 and the surviving fraction (MK2206 [4]; 10 nM) was 0.809 ± 0.053. The surviving fraction (MK2206 [4]; 50 nM) was 0.728 ± 0.075, the surviving fraction (MK2206 [4]; 100 nM) was 0.798 ± 0.098 and the surviving fraction (MK2206 [4]; 500 nM) was 0.944 ± 0.13. The surviving fraction (MK2206 [4]; 1000 nM) was 0.806 ± 0.049, the “area under dose-response curve” value (ERLOTINIB [5]) was 2.36 and the “area under dose-response curve” value (METHOTREXATE [6]) was 2.37. The “area under dose-response curve” value (EVEROLIMUS [7]) was 2.28, the “area under dose-response curve” value (MK2206 [8]) was 2.67 and the “area under dose-response curve” value (GEMCITABINE) was 1.48.
For HS57T LUNG, the “area under dose-response curve” value (ERLOTINIB [5]) was 3.44, the “area under dose-response curve” value (VINORELBINE) was 1.21 and the “area under dose-response curve” value (PLX-4720) was 3.1. The “area under dose-response curve” value (SUNITINIB) was 2.84, the “area under dose-response curve” value (METHOTREXATE [6]) was 2.04 and the “area under dose-response curve” value (EVEROLIMUS [7]) was 1.54. For the same test system, the “area under dose-response curve” value (AZD4547) was 2.66, the “area under dose-response curve” value (ETOPOSIDE) was 2.88 and the “area under dose-response curve” value [9] was 1.13. The “area under dose-response curve” value (MK2206 [8]) was 3.09, the “area under dose-response curve” value (GEMCITABINE) was 1.27 and the “area under dose-response curve” value [10] was 2.83.

Source: the supplement of paper PMC6045584
